Patent publication EP1175907A1, “REMEDIES” (Takara Shuzo Co, Ltd., priority 1999, dated 2000)

Legend:
Assay type in all cases: cell-based, human
HL60 cells [1] = assay: HGF in medium and cells of HL60 cells with or without TPA; conditions: 10 nM TPA alone, 24 h
Method: HL60 cells (human promyelocytic leukemia cell line) cultured in an RPMI 1640 medium containing 10% fetal bovine serum were suspended in an RPMI 1640 medium containing 1% fetal bovine serum so as to have a concentration of 5 × 10^5 cells/ml, and added into each well of a 48-well cell culture plate in a volume of 500 µl each. There after, 10 nM TPA was added thereto, and each sample was further added, and the cells were then cultured for 24 hours. Also, the same steps were carried out for the group added with only the sample without adding TPA. The medium was collected, and the amount of HGF in the medium was determined by using the Quantikine Human Hepatocyte Growth Factor (HGF) ELISA Kit. Further, the cells were washed with PBS, and thereafter dissolved in 500 µl of a cytolytic buffer (50 mM HEPES, pH 7.4; 10 mM EDTA; 0.1% Triton X100; 1 mM PMSF; 1 µg/ml pepstatin A and 1 µg/ml leupeptin). Further, in order to completely dissolve the cells, the mixture was subjected to sonication treatment, and then centrifuged, to give a supernatant (cell extract). The amount of HGF in the cells was determined in the same manner as that of the concentration of HGF in the medium. 7-12SFd-F prepared in item (3) of Reference Example 2 was added so as to have a final concentration of 1, 10 or 100 µg/ml. As a negative control, distilled water was added in the same volume as that of the sample. Each experiment was carried out three times, and an average value was taken.

NHDF cells [2] = assay: HGF mRNA in NHDF cells (RT-PCR); conditions: 10 nM TPA, at any time periods (4 to 10 hours)
Method: NHDF cells (normal human dermal fibroblasts) cultured in a DMEM medium containing 10% fetal bovine serum were suspended in the DMEM medium containing 10% fetal bovine serum so as to have a concentration of 2.5 × 10^5 cells/ml, and added into each well of a 6-well cell culture plate in a volume of 2 ml each. The cells were cultured at 37°C for 24 hours in the presence of 5% CO2. Thereafter, the medium was exchanged for a DMEM medium containing 1% fetal bovine serum, and thereto were added 10 nM tetradecanoylphorbol 13-acetate (TPA: manufactured by Gibco BRL) and 7-12SFd-F prepared in item (3) of Reference Example 2 each so as to have a final concentration of 100 µg/ml. Also, the same steps were carried out for the group added with only 7-12SFd-F without adding TPA. The cells were further cultured, and a whole RNA was extracted on Hours 4, 6, 8 and 10. In the extraction of the whole RNA, RNeasy Mini Kit (QIAGEN) was used. RT-PCR was carried out entirely in the same manner as that in Example 14, except for changing the cycles for PCR to 28 cycles. After the reaction, the reaction mixture was subjected to electrophoresis on a 2% agarose gel and ethidium bromide staining, and the gel was observed under UV irradiation.

NHDF cells [3] = assay: HGF in medium and cells of NHDF cells with or without TPA; conditions: 10 nM TPA alone
HL60 cells [4] = assay: HGF mRNA in HL60 cells (RT-PCR); conditions: 10 nM TPA, at any time periods (4 to 10 hours)
Method: HL60 cells (human promyelocytic leukemia cell line) cultured in an RPMI 1640 medium containing 10% fetal bovine serum were suspended in an RPMI 1640 medium containing 1% fetal bovine serum so as to have a concentration of 5 × 10^5 cells/ml, and added into each well of a 6-well cell culture plate in a volume of 2 ml each. Thereafter, 10 nM TPA and 7-12SFd-F prepared in item (3) of Reference Example 2 were added each so as to have a final concentration of 100 µg/ml. Also, the same steps were carried out for the group added with only 7-12SFd-F without adding TPA. The cells were further cultured, and a whole RNA was extracted on Hours 4, 6, 8, and 10. In the extraction of the whole RNA, RNeasy Mini Kit (manufactured by QIAGEN) was used. RT-PCR was carried out entirely in the same manner as that in Example 14, except for changing the cycles for PCR to 32 cycles. After the reaction, the reaction mixture was subjected to electrophoresis on a 2% agarose gel and ethidium bromide staining, and the gel was observed under UV irradiation.

Hs68 cells = assay: HGF in medium and cells of Hs68 cells with or without TPA; conditions: 10 nM TPA alone
Method: Hs68 cells (human newborn foreskin fibroblasts: manufactured by DAINIPPON PHARMACEUTICAL CO., LTD., ATCC CRL-1635) cultured in a DMEM medium containing 10% fetal bovine serum were suspended in the DMEM medium containing 10% fetal bovine serum so as to have a concentration of 1 × 10^5 cells/ml, and added into each well of a 48-well cell culture plate in a volume of 500 µl each. The cells were cultured for 24 hours. Thereafter, the medium was exchanged for a DMEM medium containing 1% fetal bovine serum, and thereto were added 10 nM TPA and each sample. Also, the same steps were carried out for the group added with only the sample without adding TPA. The medium was collected, and the amount of HGF in the medium was determined by using Quantikine Human Hepatocyte Growth Factor (HGF) ELISA Kit. Further, the cells were washed with PBS, and thereafter dissolved in 500 µl of a cytolytic buffer (50 mM HEPES, pH 7.4; 10 mM EDTA; 0.1% Triton X100; 1 mM PMSF; 1 µg/ml pepstatin A and 1 µg/ml leupeptin). Further, in order to completely dissolve the cells, the mixture was subjected to sonication treatment, and then centrifuged, to give a supernatant (cell extract). The amount of HGF in the cell was determined in the same manner as that of the concentration of HGF in the medium. 7-12SFd-F prepared in item (3) of Reference Example 2 was added so as to have a final concentration of 0.1, 1, 10 or 100 µg/ml. As a negative control, distilled water was added in the same volume as that of the sample. Each experiment was carried out three times, and an average value was taken. In the TPA non-added group, a remarkable production of HGF could not be found. […] In addition, the increase in the amount of HGF when mRNA is increased as described above was very remarkable, as compared to the case where the amount of mRNA is small with no TPA treatment. It was clarified from the above that 7-12SFd-F remarkably promotes the freeing and production of HGF in a case where transcription of mRNA is promoted, so that a large amount of HGF is required.

## CCCCCCCCCCCCCC(=O)O[C@@H]1[C@@H](C)[C@@]2(O)[C@@H](C=C(CO)C[C@]3(O)C(=O)C(C)=C[C@@H]23)[C@@H]2C(C)(C)[C@]12OC(C)=O [TPA, 12-O-tetradecanoylphorbol 13-acetate]
HL60 cells [1]
  Amount of HGF in Cells: 83.37 pg/Well
  Amount of HGF in Medium: 261.60 pg/Well
  Total Amount of HGF: 344.97 pg/Well
NHDF cells [2]
  amount of HGF mRNA: remarkably increased
NHDF cells [3]
  Amount of HGF in Cells: 0.24 ng/Well
  Amount of HGF in Medium: 0.39 ng/Well
  Total Amount of HGF: 0.63 ng/Well
HL60 cells [4]
  amount of HGF mRNA: remarkably increased
Hs68 cells
  Amount of HGF in Cells: 155.65 pg/Well
  Amount of HGF in Medium: 65.54 pg/Well
  Total Amount of HGF: 221.19 pg/Well
